Data as given in patent publication US8367678B2, “Treatment for spinal muscular atrophy” (Kaohsiung Medical University, priority 2008, dated 2013).

Assays:
Assay type in all cases: cell-based, Human
SMA lymphoid cells [1] = experiment: Cell growth assay (cell counts at 120 hours); details: 120 hours in vitro cultures, from dose response curve; read-out: concentration causing 50% growth inhibition of SMA lymphoid cells
Method: (§1) 2.5×10^5 lymphoid cells/0.5-ml/well in a 12-well dish were exposed to 0, 2, 5, 10, 20 or 50 μM of EIPA. Viability was determined by trypan blue dye exclusion at 24 hours. To determine the cell growth effect of EIPA, 2.5×10^5 lymphoid cells/0.5-ml/well in a 12-well dish were exposed to 0, 2, 5, 10, 20 or 50 μM of EIPA. 0.5-ml of fresh medium (without or with the same EIPA addition) was added at 72 hours and cell counts made at 120 hours. Referring to FIG. 6A, the cell viability remained at above 90% after treatment of 20 μM (or lower) EIPA for 24 hours, but was down to 60% in 50 WA EIPA medium. Additionally, Referring to FIG. 6B, from a dose response curve of 120 hours in vitro cultures, it was estimated that 8 μM of EIPA cause 50% growth inhibition of SMA lymphoid cells.

[2] = test system: SMN protein in SMA lymphoid cell lines; experiment: SMN protein level by Western blotting and quantitative densitometry; details: 24 hours
Method: SMA lymphoid cell lines were treated with various concentrations of EIPA for 24 hours and then the level of SMN protein by Western blotting and quantitative densitometry were measured. Protein extract preparation and western blot analysis were performed essentially as described previously (Proc Natl Acad Sci USA 2001; 98:9808-9813). Briefly, proteins were resolved by SDS-PAGE and transferred to a polyvinyl difluoride membrane (Millipore). The membrane was blocked with a 5% skim milk solution and then exposed to the appropriate concentrations of primary antibodies for 1 hour at room temperature. The following primary antibodies were used: mouse monoclonal anti-SMN (BD Biosciences, 1:5,000), mouse monoclonal anti-SR 16H3 (Zymed, 1:500), mouse monoclonal anti-SRp20 (Zymed, 1:500), mouse monoclonal anti-hnRNP A 1 (Acris, 1:1000), mouse monoclonal anti-hnRNP A2/B1 (Acris, 1:1000), mouse monoclonal anti-Sam68 (Santa Cruz, 1:500), mouse monoclonal anti-SF2/ASF (Zymed, 1:2000), mouse monoclonal anti-Akt (Cell Signaling, 1:1000), mouse monoclonal anti-phosphorylated Akt (Cell Signaling, 1:1000), mouse monoclonal anti-α-tubulin (Abeam, 1:5000), and mouse monoclonal anti-β-tubulin (Santa Cruz, 1:2000). After washing with TBST (0.05% Tween 20 in TBS), the membrane was incubated for 1 hour with a secondary antibody at a 1:2500 dilution and then detected by ECL chemiluminescence kit (Amersham). Intensity of the signals was measured using LabWorks software (UVP). Referring to FIG. 2, in the cytoplasm, the SMN protein level of EIPA-treated SMA cell was 1.8-, 1.4-, and 2.6-fold higher than untreated cell lines. In the nucleus, the SMN protein level at 2, 10 and 50 μM EIPA was 2.2-, 2.0-, and 3.3-fold higher than untreated cell lines.

SMA lymphoid cells [3] = experiment: Intracellular pH by cytofluorometric SNARF-1 measurement; details: 4 hours, untreated control about 7.40
Method: Thus, the intracellular pH lowering and cytotoxic effects of EIPA on SMA lymphoid cells were determined. The procedures of cytofluorometric measurement were modified from a published method (J Cell Physiol 1998; 177:109-122). Briefly, three million SMA lymphoid cells were treated with 0, 2, or 10 μM of EIPA in 3 ml of growth medium for 4 hours in a 37° C. CO2 incubator, washed in PBS and then incubated in PBS containing 5 μM of carboxy SNARF-1 AM, acetate (Molecular Probes) for 30 minutes at 37° C., also in the absence or presence of 2 or 10 μM EIPA. The SNARF-1 loaded cells collected by 200×g 10 minutes centrifugation were divided into 7 aliquots, 5 for the calibration standard curves and 2 for sample reading. […] The aliquots for sample reading were suspended in hepes-buffered pH 7.1 and pH 7.4 K^+-BSS, without or with EIPA addition, but in the absence of nigericin. After standing in the darkness at room temperature for 20 minutes, the SNARF-1 fluorescence measurement was performed in a cytofluorometer (FACSAria BD Biosciences) by excitation at 488 nm and fluorescent emissions at 580 (FL-2) and 640 nm (FL-3). The cytofluorometric data was analyzed by using FACSDiVa and CellQuest software to gate the major viable cell populations for producing a standard curve of the 640/580 nm fluorescence ratios (y-axis) versus the high-K BSS buffer pHs (x-axis) of nigericin-treated cells. […]

[4] = test system: SRp20 in SMA lymphoid cell lines; experiment: Levels of SR and hnRNP proteins by Western blotting and quantitative densitometry; details: 10 μM EIPA (FIG. 3)
Method: SMA lymphoid cell lines were treated with various concentrations of EIPA for 24 hours and then the level of SMN protein by Western blotting and quantitative densitometry were measured. Protein extract preparation and western blot analysis were performed essentially as described previously (Proc Natl Acad Sci USA 2001; 98:9808-9813). Briefly, proteins were resolved by SDS-PAGE and transferred to a polyvinyl difluoride membrane (Millipore). The membrane was blocked with a 5% skim milk solution and then exposed to the appropriate concentrations of primary antibodies for 1 hour at room temperature. […] After washing with TBST (0.05% Tween 20 in TBS), the membrane was incubated for 1 hour with a secondary antibody at a 1:2500 dilution and then detected by ECL chemiluminescence kit (Amersham). Intensity of the signals was measured using LabWorks software (UVP). […]
SMA lymphoid cell lines were treated with EIPA and then the change in the levels of several SR and hnRNP proteins by Western blotting and quantitative densitometry was examined. The protein levels in cytoplasmic and nuclear fractions were also measured separately in order to gain information about subcellular distribution. […]

[5] = test system: SMN2 exon 7 splicing in SMA lymphoid cell lines; experiment: SMN2 exon 7-containing versus exon 7-lacking transcripts by RT-PCR and quantitative densitometry
Method: Human SMA lymphoid cell lines were treated with several 5-(N-ethyl-N-isopropyl)-amiloride and then the relative levels of SMN2 exon 7-containing versus exon 7-lacking transcripts by RT-PCR and quantitative densitometry (Proc Natl Acad Sci USA 2001; 98:9808-9813) were measured. Human lymphoblast cell lines were established from SMA patients with homozygous SMN1 deletion in our laboratory by Epstein-Barr virus transformation as described in Proc Natl Acad Sci USA 2001; 98:9808-9813. The cells were grown in RPMI-1640 medium supplemented with 2 mM L-glutamine, 10% fetal bovine serum (FBS), 100 units/ml penicillin and 100 μg/ml streptomycin at 37° C. in a humidified atmosphere containing 5% CO2. The SMA lymphoid cell lines derived from 6 SMA patients included 2 type I, 2 type II and 2 type III. The cells were treated with various concentrations of EIPA for 24 hours to determine the dosage effect and exposed to 10 μM of EIPA and harvested at different time intervals (2-24 hours). […] Thus, EIPA promoted SMN2 exon 7 inclusion in a dose-dependent and time-related manner in SMA cells.

SMA lymphoid cells [6] = experiment: Cell viability by trypan blue dye exclusion; details: 24 hours
Method: as §1

With `CCN(c1nc(N)c(C(=O)N=C(N)N)nc1Cl)C(C)C` [EIPA, 5-(N-ethyl-N-isopropyl)-amiloride] the IC50 (SMA lymphoid cells [1]) was ~8 µM, the “SMN protein level in the cytoplasm versus untreated cell lines” value ([2]; first listed concentration (2 μM EIPA)) was 1.8 fold and the “SMN protein level in the cytoplasm versus untreated cell lines” value ([2]; second listed concentration (10 μM EIPA)) was 1.4 fold. The “SMN protein level in the cytoplasm versus untreated cell lines” value ([2]; third listed concentration (50 μM EIPA)) was 2.6 fold, the “SMN protein level in the nucleus versus untreated cell lines” value ([2]; 2 μM EIPA) was 2.2 fold and the “SMN protein level in the nucleus versus untreated cell lines” value ([2]; 10 μM EIPA) was 2.0 fold. The “SMN protein level in the nucleus versus untreated cell lines” value ([2]; 50 μM EIPA) was 3.3 fold, the “intracellular pH (pHi)” value (SMA lymphoid cells [3]; 2 μM EIPA) was 7.15±0.10 and the “intracellular pH (pHi)” value (SMA lymphoid cells [3]; 10 μM EIPA) was 7.03±0.15. The “increase of the level of SRp20 in the nucleus” value [4] was “approximately 4 fold”, the “ratio of SMN2 exon 7-containing to exon 7-lacking transcripts” value (shortened to “ratio of SMN2 exon 7-containing”) ([5]; 2 μM EIPA, 24 hours, SMA lymphoid cell lines) was “increased significantly” and the “ratio of SMN2 exon 7-containing” value ([5]; 10 μM EIPA, 24 hours, SMA lymphoid cell lines) was “increased significantly”. For the same molecule, the “ratio of SMN2 exon 7-containing” value ([5]; 10 μM EIPA, at 4 hours after the treatment) was “significantly increased”, the “ratio of SMN2 exon 7-containing” value ([5]; 50 μM EIPA, 24 hours, SMA lymphoid cell lines) was “increased significantly” and the cell viability (SMA lymphoid cells [6]; 20 μM (or lower) EIPA) was “above 90%”. For the same molecule, the cell viability (SMA lymphoid cells [6]; 50 μM EIPA medium) was 60%.
